Several values for one entry are separate records, joined by “and”; a condition that tells them apart may be missing. Equal entries are not always repeated.
Assays:
[1] = Solubility of apigenin in oils, surfactants and cosurfactants (excess drug, shaking water bath, HPLC); assay type: physicochemical; conditions: 48 h, mean ± SD, n = 3
Excerpt: To formulate the SNEDDS, the selection of suitable oils, surfactants, and cosurfactants is important to enhance the solubility of actives and the loading efficiency. The components used in SNEDDS should maximize drug solubility and have good miscibility with each other to obtain a stable formulation. Therefore, the solubility of apigenin was firstly determined in the oils (Gelucire 44/14, Myritol 318, sunflower oil, and corn oil), surfactants (PEG-40 hydrogenated castor oil, Tween 20, Tween 80, Span 20, and Span 80), and cosurfactants (PEG 400 and Transcutol HP). Briefly, an excess amount of apigenin was weighed into 0.5 g of each excipient. The obtained mixtures were mixed using a vortex mixer and kept in a shaking water bath at 100 rpm and 37 ± 2 °C for 48 h. After equilibrium was achieved, the equilibrated sample was centrifuged at 8000 rpm for 20 min. The excess undissolved apigenin was discarded, and the supernatant was collected. The concentration of apigenin was analyzed by the high-performance liquid chromatography (HPLC). The experiments were performed in triplicate. The excipient in which apigenin was the most soluble was selected to form the pseudoternary phase diagram. The amount of apigenin was quantified by a validated reversed-phase HPLC (RP-HPLC) equipped with a UV/VIS detector (SHIMADZU Series 20AD, Japan). Apigenin was separated on a C18 column (Promosil C18, 4.5 × 250 mm, 5 µm) using methanol, acetonitrile, acetic acid, orthophosphoric acid, and water at a ratio of 40:20:0.05:0.05:40 by volume as the mobile phase at a flow rate of 0.6 mL/min with a detection wavelength of 352 nm. The column temperature was set to 30 °C. The standard curve of apigenin was linear in the concentration range of 0.05–40 µg/mL. Good linearity with a coefficient of determination (R^2) > 0.999 was achieved. The relative standard deviation (%RSD) of intraday and interday precision of the assay method for apigenin was below 6%, and the accuracy was within the range of 95–105%. The limit of quantification and limit of detection were 0.64 and 0.21 µg/mL, respectively.

[2] = In vitro dissolution profile (apparatus type II, HPMC capsules) and release kinetics fitting; assay type: physicochemical; conditions: 37 °C, 100 rpm, 5 mg apigenin in HPMC capsule
Description: The apigenin-loaded SNEDDS formulations GTP2575 and GTP3070 were selected for evaluating the in vitro dissolution because both formulations offered nearly 100% transmittance, an appropriate size with a narrow size distribution, a quick self-emulsification time, and great drug loading and encapsulation efficiency. […] Therefore, formulations GTP2575 and GTP3070 were preferred for in vitro dissolution study.
Dissolution was performed by a dissolution apparatus type II (a paddle) (Vision G2 Elite 8, Hanson, CA, USA). The SNEDDS formulations GTP2575 and GTP3070 containing 5 mg of apigenin were added to HPMC capsules number 00. An equivalent 5 mg of apigenin coarse powder added to HPMC capsules using lactose monohydrate as the filler was the control. Each capsule was placed inside a sinker loaded with 900 mL of dissolution media (buffer solutions pH 1.2, 4.5, and 6.8) at 37.0 ± 0.5 °C with a rotating speed of 100 rpm. During the study, 5 mL of dissolution medium was removed at predetermined time intervals (10, 15, 20, 30, 45, 60, 90, and 120 min), and 5 mL of fresh buffer solution was replaced. The amount of apigenin dissolved in the dissolution media was determined by HPLC. The dissolution experiment was carried out in triplicate. The dissolution profile was plotted with the percent apigenin dissolved on the y-axis and time on the x-axis. The dissolution profiles of GTP2575, GTP3070, and the coarse powder in the dissolution media buffer pH 1.2, 4.5, and 6.8 were compared. The dissolution results of the SNEDDS formulations GTP2575 and GTP3070 in pH 1.2 buffer solution were fitted by determining the R^2 with various kinetic models such as zero-order (a constant release rate independent of the drug remaining), first-order (an exponential decay of the drug remaining), Higuchi (matrix systems where drug release is controlled by diffusion), Hixon–Crowell (release based on the change in the cube root of the drug remaining), and Korsmeyer–Peppas (an extension of the […] model that incorporates a release exponent). […]

Caco-2 cells = test: Intracellular (cellular) antioxidant activity (CAA) assay, DCFH-DA/AAPH; assay type: cell-based; conditions: apigenin 7 μg/mL final, ascorbic acid 0.01%w/v, mean ± SD; for AUC (area under the DCF fluorescence response curve over time): 1 h incubation, 600 µM AAPH; for CAA unit (%reduction): vs non-antioxidant treated control
Excerpt: The quantitative cellular antioxidant activity (CAA) assay is a useful method employed for determining the bioavailability of food antioxidants because it can account for several additional factors, such as cellular uptake and metabolism. The CAA assay uses a fluorescent probe (DCFH-DA) to monitor the inhibition of peroxyl radical-induced oxidation inside the cell. The ester form (DCFH-DA) is nonionic and nonpolar and can be transported across the cell membrane. Inside the cell, DCFH-DA is deacetylated by endogenous cellular esterase and left in its oxidizable DCFH form. Once the free radical generator AAPH is added to the system, peroxyl radicals begin to form. The addition of antioxidants that can enter the cell can compete with and quench the radicals, preventing DCFH from being oxidized to form DCF (fluorescent). The CAA unit takes into account the relative areas under the curves of the samples compared to the control. Caco-2 cells, intestinal barrier models, are an appropriate model for assessing the antioxidant activity, especially for the phenolic compound[21] being used in this study.
The quantitative CAA of SNEDDS formulations GTP2575 and GTP3070 was evaluated in Caco-2 cells modified from the study of Kellett et al.[21]. Caco-2 cells were cultured in advanced DMEM supplemented with 10% endotoxin-free, heat-inactivated FBS, 1% L-glutamine, 1% penicillin (10,000 U/mL), and 1% streptomycin (10,000 μg/mL). Each test sample of SNEDDS was prepared by diluting with serum-free culture media to obtain an equivalent concentration of apigenin (14 µg/mL). The working solution (25 μM DCFH-DA in serum-free culture media) was prepared from a 12.5 mM DCFH-DA stock solution in MeOH. A 600 μM AAPH solution was prepared from a 60 mM AAPH stock solution in HBSS before experimental use. After Caco-2 cells reached confluence in a T-25 culture flask, the cells were washed twice with sterile PBS (pH 7.4) and dissociated from the surface using trypsin–EDTA. The cells were seeded in 96-well, black, flat-bottom tissue culture-treated dishes (Corning Costar, ME, USA). A density of 60,000 cells in 100 µL of culture media was added to each well and incubated until they reached confluency (24 h). The growth medium was removed after confluence was achieved, and the cells were then washed with PBS to remove any nonadherent and dead cells.
At the time of the experiment, 50 µL of 25 μM DCFH-DA working solution was added to each well, followed by 50 µL of a test sample. As a result, the final concentration of apigenin of 7 μg/mL in each well was obtained. As a control, 50 µL of DCFH-DA working solution and serum-free culture media (no sample included) were utilized. Once the DCFH-DA and test samples were added, the cells were placed in the incubator for 1 h at 37 °C. After 1 h, the cells were washed with PBS 3 times to ensure that any antioxidant effect observed later in the assay was due only to the compounds internalized by the cells. […] The cells were then immediately placed in a BMG CLARIOstar (BMG LABTECH, NC, USA), where real-time fluorescence was measured initially and every five minutes for 1 h (a total of 13 readings were taken). The fluorescence was measured at an excitation wavelength of 485 nm and an emission wavelength of 538 nm. The antioxidant activity of test samples was quantified by evaluating the percent reduction in fluorescence. […] The percent reduction, or the CAA unit, was calculated using Eq. (3). The samples were evaluated in triplicate and reported as the mean ± SD. […]

[3] = parameters: method as in PMID 34084146; conditions: cited from earlier work

Structure (SMILES) | Solubility at 37 °C ([1]; in Gelucire 44/14 (oil)) | Solubility at 37 °C ([1]; in Myritol 318 (oil)) | Solubility at 37 °C ([1]; in PEG 400 (cosurfactant)) | Solubility at 37 °C ([1]; in PEG-40 hydrogenated castor oil (surfactant)) | Solubility at 37 °C ([1]; in Span 20 (surfactant)) | Solubility at 37 °C ([1]; in Span 80 (surfactant)) | Solubility at 37 °C ([1]; in Transcutol HP (cosurfactant)) | Solubility at 37 °C ([1]; in Tween 20 (surfactant)) | Solubility at 37 °C ([1]; in Tween 80 (surfactant)) | Solubility at 37 °C ([1]; in corn oil) | Solubility at 37 °C ([1]; in sunflower oil) | percent apigenin dissolved at 120 min ([2]; buffer pH 1.2, 900 mL) | percent apigenin dissolved at 120 min ([2]; buffer pH 4.5, 900 mL) | percent apigenin dissolved at 120 min ([2]; buffer pH 6.8, 900 mL) | AUC (area under the DCF fluorescence response curve over time) (Caco-2 cells; n = 3) | CAA unit (%reduction) (Caco-2 cells; n = 3, listed as Apigenin coarse powder) | CAA unit (%reduction) (Caco-2 cells; n = 3, listed as apigenin coarse powder) | Biopharmaceutical classification system (BCS) class [3] | Solubility in water [3] | CAA unit (%reduction) (Caco-2 cells; n = 3)
O=c1cc(-c2ccc(O)cc2)oc2cc(O)cc(O)c12 [apigenin] | 7.77 ± 0.63 mg/g and 7.7686 ± 0.6332 mg/g | 0.0003 ± 0.0000 mg/g | 27.6349 ± 0.9833 mg/g | 11.3645 ± 0.2659 mg/g | 0.0013 ± 0.0000 mg/g | 0.0007 ± 0.0001 mg/g | 20.9544 ± 0.8715 mg/g | 20.9996 ± 1.1273 mg/g | 22.5921 ± 0.0290 mg/g | 0.0003 ± 0.0000 mg/g | 0.0004 ± 0.0000 mg/g | 5% | 2% | 2% | 9,951,772 ± 1,061,408 | 12.70 ± 5.14 % | 12.70% and 12.70 ± 5.14% | Class II | insoluble | –
O=C1O[C@H]([C@@H](O)CO)C(O)=C1O [ascorbic acid] | – | – | – | – | – | – | – | – | – | – | – | – | – | – | 8,959,896 ± 1,441,639 | – | – | – | – | 21.61 ± 7.41%

Source: paper PMC11024192, “Dissolution and antioxidant potential of apigenin self nanoemulsifying drug delivery system (SNEDDS) for oral delivery” (Scientific Reports, 2024)
